According to patent publication US12076300B2, “Dosage regime with esketamine for treating major depressive disorder” (priority 2019, dated 2024):

Columns and labels:
[1] = Single dose, randomized, open-label, crossover study in healthy volunteers: pharmacokinetics; conditions: plasma analyte after single dose esketamine hydrochloride 20 mg oral solution; 15 subjects
Text: A randomized, open-label 4-way crossover study in 16 healthy male and female subjects was held wherein said subjects were placed in a randomly assigned order and administered esketamine. Each subject was assigned to 1 of 4 treatment sequences according to a randomization code such that 4 subjects were assigned to each treatment sequence. There was a wash-out period of at least 7 days between dosing periods with doses consisting of either oral or intravenous esketamine hydrochloride. The study consisted of an eligibility screening period of 28 days, 4 study periods involving administration of a single dose of esketamine hydrochloride followed by safety assessments with blood sampling for PK purposes up to 72 hours after study drug administration, discharge at 72 hours after study drug administration and a follow-up visit 7-14 days after the last PK blood sample was taken on Day 4.

[2] = test system: human peripheral blood lymphocytes (HPBL)
Procedure: The clastogenic potential of (S)-norketamine was evaluated in the in vitro mammalian chromosome aberration test using human peripheral blood lymphocytes (HPBL) in both the absence and presence of an induced metabolic activation system (the 9000 g supernatant [S9] microsomal fraction of liver homogenate from rats exposed to phenobarbital/5,6-benzoflavone).
The study was conducted in 2 phases, with a preliminary toxicity test used to determine the appropriate concentrations for the definitive chromosomal aberration assay. Water was used as a negative (vehicle) control. In both phases, the cells were treated for 3 and 21 hours in the absence of S9 mix and for 3 hours in the presence of S9 mix. The mitotic index was assessed for all cultures to determine cytotoxicity. Ten concentrations, ranging from 2.62 to 260.16 μg/mL, were evaluated in the preliminary toxicity test.

[3] = test system: human peripheral blood lymphocytes (HPBL); remark: listed apart in the source
Procedure: The clastogenic potential of esketamine was evaluated in the in vitro mammalian chromosome aberration test using human peripheral blood lymphocytes (HPBL) in both the absence and presence of an induced metabolic activation system (the 9000 g supernatant [S9] microsomal fraction of liver homogenate from rats exposed to Aroclor-1254).
The study was conducted in 2 phases, with a preliminary toxicity test used to determine the appropriate concentrations for the definitive chromosomal aberration assay. Water was used as a negative (vehicle) control. Toxicity (defined as ≥45% reduction in MI relative to the vehicle control) was evaluated at 9 concentrations, ranging from 0.0238 to 238 μg/ml, after exposure of HPBL to esketamine for 20 hours in the absence of S9 activation, or for 4 hours, either in the presence or absence of S9 activation, followed by a 16-hour recovery period.
The definitive chromosome aberration assay evaluated HPBL cells after exposure to esketamine for 20 hours in the absence of S9 activation, or for 4 hours, either in the presence of absence of S9 activation, followed by a 16-hour recovery. Positive controls for chromosomal aberrations in non-activated and S9-activated evaluations, respectively, consisted of mitomycin C (MMC, 0.6 and 0.3 μg/mL for the 4- and 20-hour exposures, respectively) and cyclophosphamide (CP, 2.5, 5, and 7.5 μg/mL). […] Initially, the doses selected for evaluation of chromosomal aberrations were 60, 120, and 238 μg/mL for the non-activated 4- and 20-hour treatment conditions; and 30, 60, and 200 μg/mL for the S9-activated 4-hour treatment condition.

[4] = Repeated dose 28 day toxicokinetics; conditions: males vs females
Procedure: The objective of the study was to assess the potential toxicity, neurobehavioral effects, and toxicokinetics (TK) of esketamine when administered orally, via gavage, to Sprague Dawley rats for 28 days and to evaluate recovery during a 14-day drug-free period. Fifty male and 50 female rats were randomized into 4 groups (15/sex/Groups 1 and 4; 10/sex/Groups 2 and 3). Esketamine was administered via oral gavage once daily for 28 consecutive days to males at 0 (vehicle control), 6, 10 or 30 mg/kg/day and females at 0 (vehicle control), 2, 10 or 20 mg/kg/day in a dose volume of 10 mL/kg. Animals were observed until euthanized and necropsied on Day 29 (10/sex/group) or 43 (5/sex from Groups 1 and 4). Toxicity was evaluated based on mortality, clinical observations, body weights, food consumption, ophthalmology, motor activity, functional observational battery, clinical pathology (clinical chemistry, hematology, coagulation and urinalysis), organ weights, anatomic (macroscopic or microscopic) pathology. Toxicokinetic animals (3/sex/Group 1; 6/sex/Groups 2, 3, and 4) were similarly dosed and bled on Day 1 and during Week 4 for toxicokinetic analysis.

male Sprague Dawley rats = assay: 7-day forced swim test; format: in vivo
Procedure: Groups of, 6-7 week old, male Sprague Dawley rats were administered esketamine by intraperitoneal injection and their behavioral despair assessed by a forced swim test. The animals, in cohorts of 10, were administered either a single dose of 15 mg/kg esketamine, 7 daily doses of either 7.5 or 15 mg/kg esketamine or a vehicle control, and the test performed 30 minutes after dosing. Statistical evaluation was performed using an ordinary One-Way ANOVA, t Test and an Uncorrected Fisher's LSD comparisons test.

[5] = test system: healthy male and female subjects; assay: Single dose crossover study in healthy volunteers: treatment-emergent adverse events; format: in vivo, human; conditions: all treatments, 16 subjects
Text: A total of 128 TEAEs (treatment-emergent adverse event) were reported by 15 of 16 (94%) subjects of which 79 TEAEs reported by 14 of 16 (88%) subjects were to be related to the study drug. Overall, a total of 14 of 128 TEAEs reported by 4 (25%) subjects were of moderate severity and 114 of 128 TEAEs reported by 15 (94%) subjects were of mild severity. […] The most frequently occurring adverse events (reported more than twice) were headache, dizziness, hypokinesia, feeling abnormal, fatigue, euphoric mood inappropriate affect, nausea and hyperhidrosis. Table 4 presents the frequency of the most frequently reported related TEAEs as a percentage of the subjects that experienced an adverse effect per treatment.

[6] = Pharmacokinetics of 40 mg oral esketamine in MDD participants treated with an antidepressant; format: in vivo, human; conditions: 40 mg oral esketamine hydrochloride once daily for 7 days, 15 MDD subjects
Procedure: An 18 subject in patient study to assess the safety, tolerability, and pharmacokinetics of 40 mg oral esketamine in MDD participants currently treated with an antidepressant drug was held. In an, up to, 35 day screening phase, the subjects were assessed for study eligibility and, if needed, washed out from disallowed drugs. During this period, it was also determined whether the subject's current dose of oral antidepressant medication had been stable for at least 4 weeks.

[7] = Domino (2010); cited from earlier work

Compound: N[C@]1(c2ccccc2Cl)CCC[C@H](O)C1=O [(2S,6S)-OH-Norketamine, (2S,6S)-2-Amino-2-(2-chlorophenyl)-6-hydroxycyclohexanone]
- t1/2, geometric mean [1]: 7.83 h

Compound: N[C@]1(c2ccccc2Cl)CCCCC1=O [(S)-norketamine, (2S)-2-(2-Chlorophenyl)-2-(amino) cyclohexanone]
- clastogenicity (structural and numerical chromosomal aberrations) [2]: non-clastogenic

Compound: CN[C@]1(c2ccccc2Cl)CCCCC1=O [esketamine, (2S)-2-(2-Chlorophenyl)-2-(methylamino) cyclohexanone]
- Cochran-Armitage test for dose response of structural aberrations [3]: positive for a dose response
- induction of numerical chromosomal aberrations [3]: negative
- induction of structural and numerical chromosomal aberrations [3]: negative
- toxicity (≥45% reduction in MI relative to the vehicle control), preliminary toxicity test [3]: not observed at any dose
- cytotoxicity (≥45% reduction in mitotic index relative to the vehicle control), definitive assay ([3]; non-activated 4- and 20-hour treatment, 30 to 238 μg/ml): not observed at any esketamine dose
- exposure by sex after normalization for dose level differences [4]: males had lower exposures than females
- antidepressant-like effect, continuous 7-day treatment vs single acute dose (male Sprague Dawley rats; same dose levels): stronger antidepressant-like effect than a single acute dose
- effect on immobility time, acute treated rats (male Sprague Dawley rats; single dose of 15 mg/kg intraperitoneal, test 30 minutes after dosing): 42 % of control
- total number of TEAEs reported [5]: 128
- mean esketamine Cmax [6]: 11.82 ng/mL
- AUC(0-t) ([6]; human, in vivo, read-out: mean esketamine AUC0-t): 35.6 ng·h/mL
- psychotomimetic side effects compared with (R)-ketamine [7]: greater undesirable psychotomimetic side effects
